ChEMBL document CHEMBL4610123, “Structure-Based Drug Discovery of N-((R)-3-(7-Methyl-1H-indazol-5-yl)-1-oxo-1-(((S)-1-oxo-3-(piperidin-4-yl)-1-(4-(pyridin-4-yl)piperazin-1-yl)propan-2-yl)amino)propan-2-yl)-2'-oxo-1',2'-dihydrospiro[piperidine-4,4'-pyrido[2,3-d][1,3]oxazine]-1-carboxamide (HTL22562): A Calcitonin Gene-Related …” (J Med Chem, 2020)
In brackets after ≈: the same amount, converted by molar mass.

Legend:
[1] = Volume of distribution at steady state in cynomolgus monkey at 0.5 mg/kg, iv; format: ADME, organism-based, Macaca fascicularis; settings: in vivo, read-out: Vdss
[2] = target: Calcitonin-gene-related peptide receptor, CALCRL/RAMP1 (Homo sapiens, UniProt O60894+Q16602); test: Displacement of [3H]telcagepant from recombinant human CLR/RAMP1 expressed in Sf21 insect cell membranes measured after 60 mins by microbeta scintillation counting method
Calcitonin-gene-related peptide receptor, CALCRL/RAMP1, sequence (O60894 whole entry): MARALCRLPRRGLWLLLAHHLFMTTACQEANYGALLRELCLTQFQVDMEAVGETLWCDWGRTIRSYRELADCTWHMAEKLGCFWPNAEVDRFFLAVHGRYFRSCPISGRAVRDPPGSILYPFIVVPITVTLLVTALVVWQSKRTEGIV
Calcitonin-gene-related peptide receptor, CALCRL/RAMP1, sequence (Q16602 whole entry): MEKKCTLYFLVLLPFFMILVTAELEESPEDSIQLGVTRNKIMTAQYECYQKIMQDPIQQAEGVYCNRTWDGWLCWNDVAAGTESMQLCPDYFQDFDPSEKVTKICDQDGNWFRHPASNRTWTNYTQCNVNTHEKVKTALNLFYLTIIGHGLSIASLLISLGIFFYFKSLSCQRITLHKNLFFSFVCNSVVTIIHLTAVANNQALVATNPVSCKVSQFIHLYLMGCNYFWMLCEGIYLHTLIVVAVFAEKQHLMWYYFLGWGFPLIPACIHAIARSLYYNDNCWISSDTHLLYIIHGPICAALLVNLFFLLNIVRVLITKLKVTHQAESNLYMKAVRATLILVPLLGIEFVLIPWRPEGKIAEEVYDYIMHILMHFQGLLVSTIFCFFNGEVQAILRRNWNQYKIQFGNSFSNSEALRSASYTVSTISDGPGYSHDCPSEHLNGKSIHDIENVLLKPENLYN

[3] = Oral bioavailability in cynomolgus monkey at 0.013 mg/kg; format: ADME, organism-based, Macaca fascicularis; settings: in vivo
[4] = Clearance in cynomolgus monkey at 0.5 mg/kg, iv; format: ADME, organism-based, Macaca fascicularis; settings: in vivo
[5] = Thermodynamic solubility of the compound at pH 7.4; format: physicochemical; settings: buffer, read-out: Therm_solubility
[6] = Lipophilicity, log D of the compound at pH 7.4; format: physicochemical; settings: buffer
[7] = Efflux ratio of apparent permeability in MDCK cells; format: ADME, cell-based, Canis lupus familiaris; settings: dog
[8] = Half life in rat hepatocytes; format: ADME, cell-based, Hepatocyte
[9] = Tmax in cynomolgus monkey at 0.5 mg/kg, sc; format: ADME, organism-based, Macaca fascicularis; settings: in vivo
hERG (KCNH2) = hERG (KCNH2) (Homo sapiens, UniProt Q12809); test: Inhibition of human ERG at 300 uM relative to control
hERG (KCNH2), sequence (Q12809 whole entry): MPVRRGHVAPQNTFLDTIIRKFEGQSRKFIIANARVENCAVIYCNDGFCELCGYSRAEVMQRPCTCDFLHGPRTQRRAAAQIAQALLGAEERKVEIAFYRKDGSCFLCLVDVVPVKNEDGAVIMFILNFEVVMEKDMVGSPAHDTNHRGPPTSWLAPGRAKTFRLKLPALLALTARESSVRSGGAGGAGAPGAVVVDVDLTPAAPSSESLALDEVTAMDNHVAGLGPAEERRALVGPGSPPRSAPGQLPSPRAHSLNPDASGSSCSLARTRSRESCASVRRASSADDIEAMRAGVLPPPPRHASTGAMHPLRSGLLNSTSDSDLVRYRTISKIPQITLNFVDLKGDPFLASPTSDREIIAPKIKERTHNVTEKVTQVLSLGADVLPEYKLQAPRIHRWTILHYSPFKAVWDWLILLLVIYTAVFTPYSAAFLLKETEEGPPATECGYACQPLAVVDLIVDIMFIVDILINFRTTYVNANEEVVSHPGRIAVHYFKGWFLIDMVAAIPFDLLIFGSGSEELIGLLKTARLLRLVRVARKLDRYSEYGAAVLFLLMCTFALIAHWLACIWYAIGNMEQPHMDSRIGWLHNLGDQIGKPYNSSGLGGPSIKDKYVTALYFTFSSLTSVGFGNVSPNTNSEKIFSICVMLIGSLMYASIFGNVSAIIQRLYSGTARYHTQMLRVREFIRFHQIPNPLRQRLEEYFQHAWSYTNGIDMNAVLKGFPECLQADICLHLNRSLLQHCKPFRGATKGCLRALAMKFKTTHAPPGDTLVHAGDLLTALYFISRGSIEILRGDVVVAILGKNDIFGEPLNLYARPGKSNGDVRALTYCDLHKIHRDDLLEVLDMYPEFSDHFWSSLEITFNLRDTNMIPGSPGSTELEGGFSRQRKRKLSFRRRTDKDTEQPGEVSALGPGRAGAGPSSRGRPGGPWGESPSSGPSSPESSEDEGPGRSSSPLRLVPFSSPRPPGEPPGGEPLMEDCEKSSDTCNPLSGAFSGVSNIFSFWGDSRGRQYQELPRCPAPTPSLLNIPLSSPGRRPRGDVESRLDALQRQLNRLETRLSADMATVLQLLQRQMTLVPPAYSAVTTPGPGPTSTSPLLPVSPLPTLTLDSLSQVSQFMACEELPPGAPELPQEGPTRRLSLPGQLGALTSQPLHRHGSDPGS

[10] = Genotoxicity in Salmonella typhimurium TA1537 by mini AMES test; format: toxicity; settings: salmonella enterica subsp. enterica serovar typhimurium
[11] = Thermodynamic solubility of the compound at pH 6; format: physicochemical; settings: buffer, read-out: Therm_solubility
[12] = Genotoxicity in Salmonella typhimurium TA98 by mini AMES test; format: toxicity; settings: salmonella enterica subsp. enterica serovar typhimurium
[13] = Tmax in rat at 1 mg/kg, sc; format: ADME, organism-based; settings: in vivo
[14] = Tmax in cynomolgus monkey at 0.013 mg/kg, sc; format: ADME, organism-based, Macaca fascicularis; settings: in vivo
[15] = Half life in cynomolgus monkey hepatocytes; format: ADME, cell-based, Macaca fascicularis, Hepatocyte
[16] = Oral bioavailability in cynomolgus monkey at 0.5 mg/kg; format: ADME, organism-based, Macaca fascicularis; settings: in vivo
Cytochrome P450 2C8 = target: T1, Cytochrome P450 2C8 (Homo sapiens, UniProt P10632); test: Inhibition of CYP2C8 (unknown origin); format: ADME
T1 sequence (P10632 whole entry): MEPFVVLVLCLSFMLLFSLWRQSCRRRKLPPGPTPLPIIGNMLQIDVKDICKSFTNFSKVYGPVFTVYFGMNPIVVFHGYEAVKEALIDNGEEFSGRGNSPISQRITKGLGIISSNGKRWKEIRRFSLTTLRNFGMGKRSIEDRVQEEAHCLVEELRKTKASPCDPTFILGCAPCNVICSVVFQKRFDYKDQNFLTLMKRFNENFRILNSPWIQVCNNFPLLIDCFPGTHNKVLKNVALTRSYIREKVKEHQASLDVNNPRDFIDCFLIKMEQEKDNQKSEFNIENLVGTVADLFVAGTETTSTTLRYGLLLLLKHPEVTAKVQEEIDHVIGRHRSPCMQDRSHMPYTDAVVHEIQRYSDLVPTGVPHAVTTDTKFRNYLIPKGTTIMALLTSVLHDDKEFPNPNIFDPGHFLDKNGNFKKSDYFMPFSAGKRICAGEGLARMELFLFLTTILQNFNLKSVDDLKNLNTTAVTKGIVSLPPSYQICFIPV

[17] = Oral bioavailability in rat at 1 mg/kg; format: ADME, organism-based; settings: in vivo
[18] = Half life in cynomolgus monkey at 0.5 mg/kg, iv; format: ADME, organism-based, Macaca fascicularis; settings: in vivo
[19] = Stability of the compound in pH 3 solution at 50 degC assessed as loss of purity after 1 week; format: physicochemical; settings: read-out: Drug degradation
[20] = Half life in cynomolgus monkey at 0.013 mg/kg, sc; format: ADME, organism-based, Macaca fascicularis; settings: in vivo
[21] = Protein binding in rat plasma by high-throughput dialysis method; format: ADME, cell-free; settings: read-out: PPB (converted)
[22] = Protein binding in cynomolgus monkey plasma by high-throughput dialysis method; format: ADME, cell-free, Macaca fascicularis; settings: read-out: PPB (converted)
Cytochrome P450 1A2 = target: T2, Cytochrome P450 1A2 (Homo sapiens, UniProt P05177); test: Inhibition of CYP1A2 (unknown origin); format: ADME
T2 sequence (P05177 whole entry): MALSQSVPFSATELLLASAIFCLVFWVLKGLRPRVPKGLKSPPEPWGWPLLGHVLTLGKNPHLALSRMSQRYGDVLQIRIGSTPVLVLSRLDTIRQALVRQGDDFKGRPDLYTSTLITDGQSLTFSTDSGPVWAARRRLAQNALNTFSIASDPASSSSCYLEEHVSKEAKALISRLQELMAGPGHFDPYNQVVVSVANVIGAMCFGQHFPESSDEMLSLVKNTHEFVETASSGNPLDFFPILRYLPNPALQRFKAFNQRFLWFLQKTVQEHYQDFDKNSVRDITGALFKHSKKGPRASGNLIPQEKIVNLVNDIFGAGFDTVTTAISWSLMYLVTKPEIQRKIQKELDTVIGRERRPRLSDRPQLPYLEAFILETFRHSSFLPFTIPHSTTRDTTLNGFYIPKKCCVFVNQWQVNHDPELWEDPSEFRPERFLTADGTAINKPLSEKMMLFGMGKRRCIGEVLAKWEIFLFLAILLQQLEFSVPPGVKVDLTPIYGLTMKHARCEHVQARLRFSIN

[23] = Half life in cynomolgus monkey at 0.5 mg/kg, sc; format: ADME, organism-based, Macaca fascicularis; settings: in vivo
[24] = AUC (infinity) in cynomolgus monkey at 0.013 mg/kg, sc; format: ADME, organism-based, Macaca fascicularis; parameters: dose 0.013 mg/kg, route subcutaneous, time infinity; settings: in vivo
[25] = Half life in dog hepatocytes; format: ADME, cell-based, Canis lupus familiaris, Hepatocyte
Homo sapiens = species: Homo sapiens; test: Selectivity ratio of antagonist activity at amylin-1 receptor (unknown origin) to antagonist activity at human CGRP receptor in human SK-N-MC cells; format: cell-based
[26] = target: Amylin receptor AMY1, CALCR/RAMP1 (Homo sapiens) (UniProt P30988+O60894); test: Antagonist activity at human amylin-1 receptor; format: protein-complex assay
[27] = test system: CALCRL/RAMP2 (adrenomedullin AM1 receptor) (Homo sapiens); test: Antagonist activity at human adrenomedullin-1 receptor
[28] = Stability of the compound in pH 8 solution at 50 degC assessed as loss of purity after 1 week; format: physicochemical; settings: read-out: Drug degradation
[29] = Clearance in dog at 0.5 mg/kg, iv; format: ADME, organism-based, Canis lupus familiaris; settings: in vivo
Cytochrome P450 2D6 = Cytochrome P450 2D6 (Homo sapiens, UniProt P10635); test: Inhibition of CYP2D6 (unknown origin); format: ADME
Cytochrome P450 2D6, sequence (P10635 whole entry): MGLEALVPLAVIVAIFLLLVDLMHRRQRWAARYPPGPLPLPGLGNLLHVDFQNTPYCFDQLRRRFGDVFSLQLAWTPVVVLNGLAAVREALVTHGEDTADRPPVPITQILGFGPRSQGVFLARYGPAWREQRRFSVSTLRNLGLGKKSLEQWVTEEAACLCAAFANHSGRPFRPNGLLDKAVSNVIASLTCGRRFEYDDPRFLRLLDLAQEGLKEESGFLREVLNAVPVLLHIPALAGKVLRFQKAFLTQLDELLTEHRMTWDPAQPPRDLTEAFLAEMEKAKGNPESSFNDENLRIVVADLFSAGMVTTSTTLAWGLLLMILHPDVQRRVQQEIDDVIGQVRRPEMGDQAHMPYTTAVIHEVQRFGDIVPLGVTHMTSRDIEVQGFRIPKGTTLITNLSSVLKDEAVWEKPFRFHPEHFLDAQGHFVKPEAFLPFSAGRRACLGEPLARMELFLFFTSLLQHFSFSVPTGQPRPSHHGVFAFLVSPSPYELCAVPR

[30] = Half life in human hepatocytes; format: ADME, cell-based, Hepatocyte
[31] = Volume of distribution at steady state in rat at 2 mg/kg, iv; format: ADME, organism-based; settings: in vivo, read-out: Vdss
[32] = Solubility of the compound at pH 5.7 using amorphous form of sample; format: physicochemical; settings: buffer
[33] = Volume of distribution at steady state in dog at 0.5 mg/kg, iv; format: ADME, organism-based, Canis lupus familiaris; settings: in vivo, read-out: Vdss
Cytochrome P450 2C9 = Cytochrome P450 2C9 (Homo sapiens, UniProt P11712); test: Inhibition of CYP2C9 (unknown origin); format: ADME
Cytochrome P450 2C9, sequence (P11712 whole entry): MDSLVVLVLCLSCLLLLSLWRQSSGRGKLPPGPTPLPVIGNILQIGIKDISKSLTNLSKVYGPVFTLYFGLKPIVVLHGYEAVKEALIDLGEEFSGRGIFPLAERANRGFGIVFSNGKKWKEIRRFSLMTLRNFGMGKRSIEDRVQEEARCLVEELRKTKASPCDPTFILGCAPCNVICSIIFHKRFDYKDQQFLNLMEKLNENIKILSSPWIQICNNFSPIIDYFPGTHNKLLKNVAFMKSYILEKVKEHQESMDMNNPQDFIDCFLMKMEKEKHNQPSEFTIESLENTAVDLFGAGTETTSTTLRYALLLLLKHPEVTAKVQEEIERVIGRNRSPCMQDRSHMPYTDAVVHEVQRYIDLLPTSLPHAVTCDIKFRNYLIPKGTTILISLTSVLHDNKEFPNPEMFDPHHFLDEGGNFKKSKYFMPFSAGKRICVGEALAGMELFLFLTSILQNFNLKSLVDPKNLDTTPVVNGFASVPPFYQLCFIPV

[34] = Genotoxicity in Salmonella typhimurium TA100 by mini AMES test; format: toxicity; settings: salmonella enterica subsp. enterica serovar typhimurium
[35] = Solubility of the compound at pH 8.2 using amorphous form of sample; format: physicochemical; settings: buffer
[36] = target: Calcitonin-gene-related peptide receptor; CALCRL/RAMP1 (Rattus norvegicus) (UniProt Q63118+Q9JJ74); test: Antagonist activity at rat CGRP receptor; format: protein-complex assay
[37] = Binding affinity to cynomolgus monkey CGRP receptor; parameters: species or system Macaca fascicularis
[38] = Solubility of the compound at pH 4 using amorphous form of sample; format: physicochemical; settings: buffer

SMILES: Cc1cc(C[C@@H](NC(=O)N2CCC3(CC2)OC(=O)Nc2ncccc23)C(=O)N[C@@H](CC2CCNCC2)C(=O)N2CCN(c3ccncc3)CC2)cc2cn[nH]c12 [HTL-0022562]
- Vd [1]: 0.4 L/kg
- Ki [2]: 31.6 pM
- bioavailability [3]: 68%
- clearance [4]: 2 mL/min/kg
- solubility thermodynamic [5]: 2460 µM (≈ 1880 µg/mL)
- logD [6]: -0.4
- efflux ratio [7]: > 2.7
- half-life [8]: > 5 h
- Tmax [9]: 0.8 h
- inhibition at 300 µM (hERG (KCNH2)): 6%
- Activity [10]: Non-Toxic
- solubility thermodynamic [11]: 2920 µM (≈ 2230 µg/mL)
- Activity [12]: Non-Toxic
- Tmax [13]: 0.7 h
- Tmax [14]: 0.8 h
- half-life [15]: > 5 h
- bioavailability [16]: 117%
- IC50 (Cytochrome P450 2C8): > 50.1 µM
- bioavailability [17]: 123%
- half-life [18]: 5.3 h
- degraded at 168 h [19]: 0.4%
- half-life [20]: 3.5 h
- fraction unbound [21]: 0.59
- fraction unbound [22]: 0.69
- IC50 (Cytochrome P450 1A2): > 50.1 µM
- half-life [23]: 3.6 h
- AUC(0-inf) [24]: 81 ng·h/mL
- half-life [25]: > 5 h
- Selectivity ratio (Homo sapiens): > 8000
- pKb [26]: < 6.3
- pKb [27]: < 5.7
- degraded at 168 h [28]: 4.5%
- clearance [29]: 10 mL/min/kg
- IC50 (Cytochrome P450 2D6): > 50.1 µM
- half-life [30]: > 5 h
- Vd [31]: 1 L/kg
- solubility [32]: 115 mg/mL (≈ 151 mM)
- Vd [33]: 0.3 L/kg
- IC50 (Cytochrome P450 2C9): > 50.1 µM
- Activity [34]: Non-Toxic
- solubility [35]: 9 mg/mL (≈ 11.8 mM)
- pKb [36]: < 7
- pKi [37]: 11.3
- solubility [38]: 174 mg/mL (≈ 228 mM)
